Source: patent publication US6838416B2, “Herbicidal 5-benzyloxymethyl-1,2-isoxazoline derivatives” (Korea Research Institute of Chemical Technology, priority 2000, dated 2005)

Assays:
ORYSA (3-leaf stage) = assay: Assay for herbicidal activity, paddy pots: phytotoxicity to transplanted rice seedlings; assay type: in vivo, Oryza sativa L.; details: three weeks after application, 0 untreated control, 100 complete kill
Description: (§1) To evaluate herbicidal activity against the paddy weeds in the paddy rice (ORYSA: Oryza sativa L.), the herbicidal activity of the compounds of the invention was compared to that of the compound No.109 (compound A) disclosed in U.S. Pat. […] The paddy weeds tested were ECHOR (Echinochloa crus-galli var. oryzicola), SCPJU (Scirpus juncoides ROXB), MOOVA (Monochoria vaginalis […] (Cyperus serotinus ROTTB), and SAGPY (Sagittaria pygmaea MTQ). The vessels employed were plastic pots having an area of 140 cm^2 and filled with a sandy loam soil containing 1.2% organic matter (pH 6).

SCPJU (seed) = assay: Assay for herbicidal activity, paddy pots: SCPJU; assay type: in vivo, Scirpus juncoides ROXB; details: three weeks after application, 0 untreated control, 100 complete kill
Description: as §1

ORYSA (seed) = assay: Assay for herbicidal activity, paddy pots: phytotoxicity to seeded (pregerminated) rice; assay type: in vivo, Oryza sativa L.; details: three weeks after application, 0 untreated control, 100 complete kill
Description: as §1

paddy weeds = assay: Greenhouse herbicidal assays, overall statements on paddy weeds; assay type: in vivo
Description: To evaluate herbicidal activity against the paddy weeds in the paddy rice (ORYSA: Oryza sativa L.), the herbicidal activity of the compounds of the invention was compared to that of the compound No.109 (compound A) disclosed in U.S. Pat. No. 4,983,210 which has a similar structure with that of the present invention. The paddy weeds tested were ECHOR (Echinochloa crus-galli var. oryzicola), SCPJU (Scirpus juncoides ROXB), MOOVA (Monochoria vaginalis PRESL), CYPSE (Cyperus serotinus ROTTB), and SAGPY (Sagittaria pygmaea MTQ).
The vessels employed were plastic pots having an area of 140 cm^2 and filled with a sandy loam soil containing 1.2% organic matter (pH 6). Rice seedlings at the 3-leaf stage (ORYSA: Oryza sativa L.) and pregerminated seeds of rice were transplanted at the depth of 2 cm or seeded on the soil surface, respectively. Then the seeds of ECHOR, SCPJU, and MOOVA were seeded and the tubers of CYPSE and SAGPY also planted on the soil surface in the above plastic pot, wherein the pots were watered at the depth of 3 cm just after planting.
Two days after planting, a solution of the test compound and a non-ionic emulsifier (Tween-20) in 50% acetone, was diluted with water to a concentration of 0.016, 0.063, 0.25, 1.0, and 4.0 kg/ha, respectively and applied evenly to the test pots. […]

ECHOR (seed) = assay: Assay for herbicidal activity, paddy pots: ECHOR; assay type: in vivo, Echinochloa crus-galli var. oryzicola; details: three weeks after application, 0 untreated control, 100 complete kill
Description: as §1

SAGPY (tuber) = assay: Assay for herbicidal activity, paddy pots: SAGPY; assay type: in vivo, Sagittaria pygmaea MTQ; details: three weeks after application, 0 untreated control, 100 complete kill
Description: as §1

MOOVA (seed) = assay: Assay for herbicidal activity, paddy pots: MOOVA; assay type: in vivo, Monochoria vaginalis PRESL; details: three weeks after application, 0 untreated control, 100 complete kill
Description: as §1

CYPSE (tuber) = assay: Assay for herbicidal activity, paddy pots: CYPSE; assay type: in vivo, Cyperus serotinus ROTTB; details: three weeks after application, 0 untreated control, 100 complete kill
Description: as §1

ECHOR 2-leaf stage = assay: Assay for herbicidal activity on the 2-leaf stage weeds and rice plants: ECHOR 2-leaf stage; assay type: in vivo, Echinochloa crus-galli var oryzicola; details: applied at 2-leaf stage, 0 untreated control, 100 complete kill
Description: (§2) The vessels employed were plastic pots having an area of 140 cm^2 and filled with a sandy loam soil containing 1.2% organic matter (pH 6). Pregerminated seed of rice (ORYSA: Oryza sativa L.) and seed of ECHOR (Echinochloa crus-galli var oryzicola) were seeded on the soil surface, respectively. The pots were then watered at the depth of 3 cm just after seeding.
(§3) Seven days after seeding, the pregerminated seeds of rice were seeded on the soil face whilst the early seeded rice in the same pots and barnyard grass (ECHOR) grew up to the 2-leaf stage. Two days after, a solution of the compound of Example 8 and Tween-20 as a non-ionic emulsifier in 50% acetone, was diluted with water to a concentration of 0.016, 0.063, 0.25, 1 and 4.0 kg/ha, respectively and applied evenly to the test pots.
(§4) Three weeks after starting from the beginning, the application of the herbicide, the herbicidal activity on paddy weeds and the phytotoxicity to the paddy rice plant were visually rated by a percentage grading wherein 0 indicates as an untreated control and 100 indicates complete kill. The results are shown in the following

ORYSA 2-leaf stage = assay: Assay for herbicidal activity on the 2-leaf stage weeds and rice plants: rice 2-leaf stage; assay type: in vivo, Oryza sativa L.; details: applied at 2-leaf stage, 0 untreated control, 100 complete kill
Description: as §2, §3, §4

ORYSA seed = assay: Assay for herbicidal activity on the 2-leaf stage weeds and rice plants: rice seed; assay type: in vivo, Oryza sativa L.; details: applied two days after seeding pregerminated seeds, 0 untreated control, 100 complete kill
Description: as §2, §3, §4

Row | SMILES | SCPJU (seed) herbicidal activity, visual percentage grading (SCPJU (seed); 0.016 kg/ha) | SCPJU (seed) herbicidal activity, visual percentage grading (SCPJU (seed); 0.063 kg/ha) | SCPJU (seed) herbicidal activity, visual percentage grading (SCPJU (seed); 0.250 kg/ha) | SCPJU (seed) herbicidal activity, visual percentage grading (SCPJU (seed); 1.000 kg/ha) | SCPJU (seed) herbicidal activity, visual percentage grading (SCPJU (seed); 4.000 kg/ha) | ECHOR (seed) herbicidal activity, visual percentage grading (ECHOR (seed); 0.016 kg/ha) | ECHOR (seed) herbicidal activity, visual percentage grading (ECHOR (seed); 0.063 kg/ha) | ECHOR (seed) herbicidal activity, visual percentage grading (ECHOR (seed); 0.250 kg/ha) | ECHOR (seed) herbicidal activity, visual percentage grading (ECHOR (seed); 1.000 kg/ha) | ECHOR (seed) herbicidal activity, visual percentage grading (ECHOR (seed); 4.000 kg/ha) | SAGPY (tuber) herbicidal activity, visual percentage grading (SAGPY (tuber); 0.016 kg/ha) | SAGPY (tuber) herbicidal activity, visual percentage grading (SAGPY (tuber); 0.063 kg/ha) | SAGPY (tuber) herbicidal activity, visual percentage grading (SAGPY (tuber); 0.250 kg/ha) | SAGPY (tuber) herbicidal activity, visual percentage grading (SAGPY (tuber); 1.000 kg/ha) | SAGPY (tuber) herbicidal activity, visual percentage grading (SAGPY (tuber); 4.000 kg/ha) | MOOVA (seed) herbicidal activity, visual percentage grading (MOOVA (seed); 0.016 kg/ha) | MOOVA (seed) herbicidal activity, visual percentage grading (MOOVA (seed); 0.063 kg/ha) | MOOVA (seed) herbicidal activity, visual percentage grading (MOOVA (seed); 0.250 kg/ha) | MOOVA (seed) herbicidal activity, visual percentage grading (MOOVA (seed); 1.000 kg/ha) | MOOVA (seed) herbicidal activity, visual percentage grading (MOOVA (seed); 4.000 kg/ha) | other results
1 | CC1(COCc2c(F)cccc2F)CC(c2cccs2)=NO1 (centres unmarked) [Compound A, reference compound] | 0% | 0% | 10% | 70% | 100% | 0% | 0% | 20% | 100% | 100% | 0% | 0% | 100% | 100% | 100% | 0% | 0% | 80% | 80% | 100% | ORYSA (3-leaf stage) phytotoxicity, visual percentage grading (ORYSA (3-leaf stage); 0.016 kg/ha): 0%; ORYSA (3-leaf stage) phytotoxicity, visual percentage grading (ORYSA (3-leaf stage); 0.063 kg/ha): 0%; ORYSA (3-leaf stage) phytotoxicity, visual percentage grading (ORYSA (3-leaf stage); 0.250 kg/ha): 0%; ORYSA (3-leaf stage) phytotoxicity, visual percentage grading (ORYSA (3-leaf stage); 1.000 kg/ha): 0%; ORYSA (3-leaf stage) phytotoxicity, visual percentage grading (ORYSA (3-leaf stage); 4.000 kg/ha): 0%; ORYSA (seed) phytotoxicity, visual percentage grading (ORYSA (seed); 0.016 kg/ha): 0%; ORYSA (seed) phytotoxicity, visual percentage grading (ORYSA (seed); 0.063 kg/ha): 0%; ORYSA (seed) phytotoxicity, visual percentage grading (ORYSA (seed); 0.250 kg/ha): 20%; ORYSA (seed) phytotoxicity, visual percentage grading (ORYSA (seed); 1.000 kg/ha): 100%; ORYSA (seed) phytotoxicity, visual percentage grading (ORYSA (seed); 4.000 kg/ha): 100%; herbicidal activity, in words (paddy weeds; at the higher doses): active; herbicidal activity, in words (paddy weeds; at the lower doses): inactive; CYPSE (tuber) herbicidal activity, visual percentage grading (CYPSE (tuber); 0.016 kg/ha): 0%; CYPSE (tuber) herbicidal activity, visual percentage grading (CYPSE (tuber); 0.063 kg/ha): 0%; CYPSE (tuber) herbicidal activity, visual percentage grading (CYPSE (tuber); 0.250 kg/ha): 10%; CYPSE (tuber) herbicidal activity, visual percentage grading (CYPSE (tuber); 1.000 kg/ha): 100%; CYPSE (tuber) herbicidal activity, visual percentage grading (CYPSE (tuber); 4.000 kg/ha): 100%
2 | Cc1ccsc1C1=NOC(C)(COCc2c(F)cccc2F)C1 (centres unmarked) [EXAMPLE 8, 5-(2,6-difluorobenzyl)oxymethyl-5-methyl-3-(4-methylthiophene-5-yl)-1,2-isoxazoline] | 0% | 10% | 10% | 40% | 100% | 50% | 100% | 100% | 100% | 100% | 0% | 0% | 0% | 50% | 80% | 50% | 90% | 90% | 100% | 100% | ECHOR 2-leaf stage herbicidal activity, visual percentage grading (ECHOR 2-leaf stage; 0.016 kg/ha): 45%; ECHOR 2-leaf stage herbicidal activity, visual percentage grading (ECHOR 2-leaf stage; 0.063 kg/ha): 95%; ECHOR 2-leaf stage herbicidal activity, visual percentage grading (ECHOR 2-leaf stage; 0.250 kg/ha): 100%; ECHOR 2-leaf stage herbicidal activity, visual percentage grading (ECHOR 2-leaf stage; 1.000 kg/ha): 100%; ECHOR 2-leaf stage herbicidal activity, visual percentage grading (ECHOR 2-leaf stage; 4.000 kg/ha): 100%; ORYSA 2-leaf stage phytotoxicity, visual percentage grading (ORYSA 2-leaf stage; 0.016 kg/ha): 0%; ORYSA 2-leaf stage phytotoxicity, visual percentage grading (ORYSA 2-leaf stage; 0.063 kg/ha): 0%; ORYSA 2-leaf stage phytotoxicity, visual percentage grading (ORYSA 2-leaf stage; 0.250 kg/ha): 0%; ORYSA 2-leaf stage phytotoxicity, visual percentage grading (ORYSA 2-leaf stage; 1.000 kg/ha): 20%; ORYSA 2-leaf stage phytotoxicity, visual percentage grading (ORYSA 2-leaf stage; 4.000 kg/ha): 65%; ORYSA (seed) phytotoxicity, visual percentage grading (ORYSA seed; 0.016 kg/ha): 0%; ORYSA (seed) phytotoxicity, visual percentage grading (ORYSA seed; 0.063 kg/ha): 20%; ORYSA (seed) phytotoxicity, visual percentage grading (ORYSA seed; 0.250 kg/ha): 55%; ORYSA (seed) phytotoxicity, visual percentage grading (ORYSA seed; 1.000 kg/ha): 80%; ORYSA (seed) phytotoxicity, visual percentage grading (ORYSA seed; 4.000 kg/ha): 95%; CYPSE (tuber) herbicidal activity, visual percentage grading (CYPSE (tuber); 0.016 kg/ha): 0%; CYPSE (tuber) herbicidal activity, visual percentage grading (CYPSE (tuber); 0.063 kg/ha): 50%; CYPSE (tuber) herbicidal activity, visual percentage grading (CYPSE (tuber); 0.250 kg/ha): 90%; CYPSE (tuber) herbicidal activity, visual percentage grading (CYPSE (tuber); 1.000 kg/ha): 100%; CYPSE (tuber) herbicidal activity, visual percentage grading (CYPSE (tuber); 4.000 kg/ha): 100%
